The source of these data is patent US7910751B2, “Heterocyclidene acetamide derivative” (Mochida Pharmaceutical Co., Ltd., priority 2005, dated 2011).

Structures are written as SMILES.

T1 sequence (Q8NER1 whole entry): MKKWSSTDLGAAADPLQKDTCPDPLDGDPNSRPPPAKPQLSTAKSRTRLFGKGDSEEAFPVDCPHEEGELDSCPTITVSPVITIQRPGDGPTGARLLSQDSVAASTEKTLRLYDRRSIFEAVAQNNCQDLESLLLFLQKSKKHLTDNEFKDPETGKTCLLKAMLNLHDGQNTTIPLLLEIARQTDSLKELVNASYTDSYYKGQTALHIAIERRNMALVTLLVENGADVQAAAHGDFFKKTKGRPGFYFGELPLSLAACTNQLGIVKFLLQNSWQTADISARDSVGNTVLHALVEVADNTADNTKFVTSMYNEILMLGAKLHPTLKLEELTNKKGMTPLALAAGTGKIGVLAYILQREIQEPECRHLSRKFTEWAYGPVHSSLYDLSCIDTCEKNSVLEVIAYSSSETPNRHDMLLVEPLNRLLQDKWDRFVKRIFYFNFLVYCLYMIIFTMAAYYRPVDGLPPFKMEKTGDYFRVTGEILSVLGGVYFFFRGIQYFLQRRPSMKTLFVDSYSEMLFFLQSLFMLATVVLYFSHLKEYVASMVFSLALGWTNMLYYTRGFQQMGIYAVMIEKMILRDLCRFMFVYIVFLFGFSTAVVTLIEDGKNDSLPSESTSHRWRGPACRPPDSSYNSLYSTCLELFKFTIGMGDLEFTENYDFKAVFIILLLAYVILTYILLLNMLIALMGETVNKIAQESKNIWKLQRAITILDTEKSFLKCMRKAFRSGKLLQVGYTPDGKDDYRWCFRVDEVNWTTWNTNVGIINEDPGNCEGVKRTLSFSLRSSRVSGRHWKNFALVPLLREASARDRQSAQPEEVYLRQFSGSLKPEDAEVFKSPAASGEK

The assay addresses T1, human TRPV1 (Homo sapiens, UniProt Q8NER1).
T1 construct: expressed in transfected cells; host or cells: CHO-K1
Description: Measurement of capsaicin-induced Ca influx in human TRPV1 transformed CHO cell line using FDSS-6000. In kind it is cell-based. The following applies: concentration at which the capsaicin concentration-reaction curve is shifted two times to the right, human TRPV1 transformed CHO cells.
On to `O=C(/C=C1\CCOc2cc(C(F)(F)F)ccc21)Nc1ccc2cccnc2c1` [Example 8, (E)-2-(7-trifluoromethyl-chroman-4-ylidene)-N-(quinolin-7-yl)acetamide], for which the “A2 VALUE” is “A (compounds of the present invention having an A2 value of less than 100 nM are represented by A)”.

For `O=C(/C=C1\CCCOc2cc(C(F)(F)F)ccc21)Nc1cccc(N2CCCC2CO)c1` (centres unmarked) [Example 229], the “A2 VALUE” is reported as “B (compounds having an A2 value of 100 nM or more are represented by B)”.

Turning to `O=C(/C=C1\CCCOc2cc(C(F)(F)F)ccc21)Nc1nc(-c2ccccc2)cs1` [Example 47, (E)-2-(8-trifluoromethyl-3,4-dihydrobenzo[b]oxepin-5(2H)-ylidene)-N-(4-phenylthiazolo-2-yl)acetamide], the “A2 VALUE” is “B (compounds having an A2 value of 100 nM or more are represented by B)”.

In the case of `O=C(/C=C1\CCN(C(=O)Cc2ccccc2)c2cc(C(F)(F)F)ccc21)Nc1cccc2c1CC(O)CC2` (centres unmarked) [Example 94, (E)-2-(1-phenylacetyl-7-trifluoromethyl-2,3-dihydroquinolin-4(1H)-ylidene)-N-(7-hydroxy-5,6,7,8-tetrahydronaphthalen-1-yl)acetamide], the “A2 VALUE” was “A (compounds of the present invention having an A2 value of less than 100 nM are represented by A)”.

Consider `CC1(C(=O)N2CC/C(=C\C(=O)Nc3cccc4c3CC(O)CC4)c3ccc(C(F)(F)F)cc32)CCC1` (centres unmarked) [Example 90, (E)-2-(1-(1-methylcyclobutanecarbonyl)-7-trifluoromethyl-2,3-dihydroquinolin-4(1H)-ylidene)-N-(7-hydroxy-5,6,7,8-tetrahydronaphthalen-1-yl)acetamide], for which the “A2 VALUE” is recorded as “A (compounds of the present invention having an A2 value of less than 100 nM are represented by A)”.

For `O=C(/C=C1\CCN(C(=O)C2(F)CCCC2)c2cc(C(F)(F)F)ccc21)Nc1cccc2c1CC(O)CC2` (centres unmarked) [Example 115, (E)-2-(1-(1-fluorocyclopentanecarbonyl)-7-trifluoromethyl-2,3-dihydroquinolin-4(1H)-ylidene)-N-(7-hydroxy-5,6,7,8-tetrahydronaphthalen-1-yl)acetamide], the “A2 VALUE” is listed as “A (compounds of the present invention having an A2 value of less than 100 nM are represented by A)”.

Consider `CC1(O)CCc2cccc(NC(=O)/C=C3\CCCOc4cc(C(F)(F)F)ccc43)c2C1` (centres unmarked) [Example 220, (E)-2-(8-trifluoromethyl-3,4-dihydrobenzo[b]oxepin-5(2H)-ylidene)-N-(7-hydroxy-7-methyl-5,6,7,8-tetrahydronaphthalen-1-yl)acetamide], for which the “A2 VALUE” is listed as “A (compounds of the present invention having an A2 value of less than 100 nM are represented by A)”.

As for `O=C(/C=C1\CCCOc2cc(C(F)(F)F)ccc21)Nc1cccc2c1CC(O)CN2` (centres unmarked) [Example 218, (E)-2-(8-trifluoromethyl-3,4-dihydrobenzo[b]oxepin-5(2H)-ylidene)-N-(3-hydroxy-1,2,3,4-tetrahydroquinolin-5-yl)acetamide], the “A2 VALUE” is listed as “A (compounds of the present invention having an A2 value of less than 100 nM are represented by A)”.

Regarding `O=C(/C=C1\CCN(C(=O)C2CCCCC2)c2cc(C(F)(F)F)ccc21)Nc1ccc2cccnc2c1` [Example 52, (E)-2-(7-trifluoromethyl-2,3-dihydro-1-cyclohexanecarbonylquinolin-4(1H)-ylidene)-N-(quinolin-7-yl)acetamide], the “A2 VALUE” is reported as “A (compounds of the present invention having an A2 value of less than 100 nM are represented by A)”.

Turning to `O=C(/C=C1\CCOc2cc(C(F)(F)F)ccc21)Nc1cccc2c1CC(O)CC2` (centres unmarked) [Example 71, (E)-2-(7-trifluoromethyl-chroman-4-ylidene)-N-(7-hydroxy-5,6,7,8-tetrahydronaphthalen-1-yl)acetamide], the “A2 VALUE” is recorded as “A (compounds of the present invention having an A2 value of less than 100 nM are represented by A)”.

For the compound `O=C(/C=C1\CCCOc2cc(C(F)(F)F)ccc21)Nc1cccnc1N1CCOCC1` [Example 20, (E)-2-(8-trifluoromethyl-3,4-dihydrobenzo[b]oxepin-5(2H)-ylidene)-N-(2-morpholinopyridin-3-yl)acetamide], the “A2 VALUE” is recorded as “B (compounds having an A2 value of 100 nM or more are represented by B)”.

Take `CC(=O)N1CC/C(=C\C(=O)Nc2ccc3cccnc3c2)c2ccc(C(F)(F)F)cc21` [Example 48, (E)-2-(1-acetyl-7-trifluoromethyl-2,3-dihydroquinolin-4(1H)-ylidene)-N-(quinolin-7-yl)acetamide]: the “A2 VALUE” was “A (compounds of the present invention having an A2 value of less than 100 nM are represented by A)”.

For `CC(C)CC(=O)N1CC/C(=C\C(=O)Nc2cccc3c2CC(O)CC3)c2ccc(C(F)(F)F)cc21` (centres unmarked) [Example 87, (E)-2-(1-(3-methylbutanoyl)-7-trifluoromethyl-2,3-dihydroquinolin-4(1H)-ylidene)-N-(7-hydroxy-5,6,7,8-tetrahydronaphthalen-1-yl)acetamide], the “A2 VALUE” was “A (compounds of the present invention having an A2 value of less than 100 nM are represented by A)”.

Take `O=C(/C=C1\CCOc2cc(Cl)ccc21)Nc1cccc2c1CC(O)CN2` (centres unmarked) [Example 209, (E)-2-(7-chloro-chroman-4-ylidene)-N-(3-hydroxy-1,2,3,4-tetrahydroquinolin-5-yl)acetamide]: the “A2 VALUE” is given as “A (compounds of the present invention having an A2 value of less than 100 nM are represented by A)”.

In the case of `CC(C)CC(=O)N1CC/C(=C\C(=O)Nc2ccc3cccnc3c2)c2ccc(C(F)(F)F)cc21` [Example 77, (E)-2-(1-(3-methylbutanoyl)-7-trifluoromethyl-2,3-dihydroquinolin-4(1H)-ylidene)-N-(quinolin-7-yl)acetamide], the “A2 VALUE” is “A (compounds of the present invention having an A2 value of less than 100 nM are represented by A)”.

For `CC(=O)N1CCC/C(=C\C(=O)Nc2ccc3cccnc3c2)c2ccc(C(F)(F)F)cc21` [Example 195, (E)-2-(1-acetyl-8-trifluoromethyl-1,2,3,4-tetrahydro-5H-benzo[b]azepin-5-ylidene)-N-(quinolin-7-yl)acetamide], the “A2 VALUE” is reported as “B (compounds having an A2 value of 100 nM or more are represented by B)”.

With `CC(NC(=O)/C=C1\CCCOc2cc(C(F)(F)F)ccc21)c1ccc2c(c1)OCCO2` (centres unmarked) [Example 33, (E)-2-(8-trifluoromethyl-3,4-dihydrobenzo[b]oxepin-5(2H)-ylidene)-N-(1-(2,3-dihydrobenzo[b][1,4]dioxin-6-yl)ethyl)acetamide], the “A2 VALUE” is recorded as “B (compounds having an A2 value of 100 nM or more are represented by B)”.

On to `O=C(/C=C1\CCCOc2cc(C(F)(F)F)ccc21)Nc1ccc2c(c1)OCO2` [Example 144, (E)-2-(8-trifluoromethyl-3,4-dihydrobenzo[b]oxepin-5(2H)-ylidene)-N-(1,3-benzodioxol-5-yl)acetamide], for which the “A2 VALUE” is “A (compounds of the present invention having an A2 value of less than 100 nM are represented by A)”.

As to `O=C(/C=C1\CCCOc2cc(C(F)(F)F)ccc21)Nc1ccc2c(c1)OC(F)(F)O2` [Example 143, (E)-2-(8-trifluoromethyl-3,4-dihydrobenzo[b]oxepin-5(2H)-ylidene)-N-(2,2-difluoro-1,3-benzodioxol-5-yl)acetamide], the “A2 VALUE” is “B (compounds having an A2 value of 100 nM or more are represented by B)”.

As to `O=C(/C=C1\CCCOc2cc(C(F)(F)F)ccc21)Nc1ncc(CO)cc1Cl` [Example 224, (E)-2-(8-trifluoromethyl-3,4-dihydrobenzo[b]oxepin-5(2H)-ylidene)-N-(3-chloro-5-hydroxymethyl-2-pyridyl)acetamide], the “A2 VALUE” is listed as “B (compounds having an A2 value of 100 nM or more are represented by B)”.

As to `O=C(/C=C1\CCOc2cc(C(F)(F)F)ccc21)Nc1cccc2c1CC(O)CN2` (centres unmarked) [Example 122, (E)-N-(3-hydroxy-1,2,3,4-tetrahydroquinolin-5-yl)-2-(7-trifluoromethyl-chroman-4-ylidene)acetamide], the “A2 VALUE” is recorded as “A (compounds of the present invention having an A2 value of less than 100 nM are represented by A)”.

As for `O=C(/C=C1\CCOc2nc(C(F)(F)F)ccc21)Nc1cccc2c1CC(O)CC2` (centres unmarked) [Example 238, (E)-2-(7-trifluoromethyl-3,4-dihydro-2H-pyrano[2,3-b]pyridin-4-ylidene)-N-(7-hydroxy-5,6,7,8-tetrahydronaphthalen-1-yl)acetamide], the “A2 VALUE” is recorded as “A (compounds of the present invention having an A2 value of less than 100 nM are represented by A)”.

Turning to `COc1cccc(NC(=O)/C=C2\CCCOc3cc(C(F)(F)F)ccc32)c1` [Example 16, (E)-2-(8-trifluoromethyl-3,4-dihydrobenzo[b]oxepin-5(2H)-ylidene)-N-(3-methoxyphenyl)acetamide], the “A2 VALUE” is reported as “A (compounds of the present invention having an A2 value of less than 100 nM are represented by A)”.

Regarding `O=C(/C=C1\CCCOc2cc(C(F)(F)F)ccc21)Nc1ccc2c(c1)C(=O)N(CCO)C2` [Example 176, (E)-2-(8-trifluoromethyl-3,4-dihydrobenzo[b]oxepin-5(2H)-ylidene)-N-(2-hydroxyethyl-2,3-dihydro-isoindol-1-on-6-yl)acetamide], the “A2 VALUE” is “B (compounds having an A2 value of 100 nM or more are represented by B)”.

On to `O=C(/C=C1\CCCOc2cc(C(F)(F)F)ccc21)NC1CCCc2cccnc2C1` (centres unmarked) [Example 45, (E)-2-(8-trifluoromethyl-3,4-dihydrobenzo[b]oxepin-5(2H)-ylidene)-N-(6,7,8,9-tetrahydro-5H-cyclohepta[b]pyridin-8-yl)acetamide], for which the “A2 VALUE” is “B (compounds having an A2 value of 100 nM or more are represented by B)”.

`CC1(C(=O)N2CC/C(=C\C(=O)Nc3cccc4c3CC(O)CC4)c3ccc(C(F)(F)F)cc32)CC1` (centres unmarked) [Example 89, (E)-2-(1-(1-methylcyclopropanecarbonyl)-7-trifluoromethyl-2,3-dihydroquinolin-4(1H)-ylidene)-N-(7-hydroxy-5,6,7,8-tetrahydronaphthalen-1-yl)acetamide]: the “A2 VALUE” is “A (compounds of the present invention having an A2 value of less than 100 nM are represented by A)”.
